From US20220401448A1, “Pharmaceutical Compositions Comprising an Inhibitor of a Histon-deacetylase (HDACi) and an Agonist of Toll-like-receptor 7 and/or 8 (TLR7 and/or TLR8) and Their Use in the Treatment of Cancer” (priority 2019, published 2022)
Converted amounts (≈) assume the structure as drawn. Like-named read-outs stand apart in the source and are kept apart here.

Assays:
[1] = tested on: SKOV3 ovarian cancer cell line; test: MTT proliferation assay, single drugs, SKOV3; type: cell-based; settings: Homo sapiens
[2] = tested on: OvCar3 ovarian cancer cell line; test: Individual effects (IC50), OvCar3; type: cell-based; settings: Homo sapiens, OVCAR-3
[3] = tested on: OvCa2810 primary ovarian cancer cells; test: Individual effects (IC50), OvCa2810; type: cell-based; settings: OvCa2810, single drug
[4] = tested on: OvCa236 primary ovarian cancer cells; test: Individual effects (IC50), OvCa236; type: cell-based; settings: OvCa236, single drug
[5] = common vehicles; cited from earlier work
[6] = tested on: Peripheral Blood Mononuclear Cells (PBMC); test: Induction of apoptosis in PBMC from healthy volunteers; settings: 24 h of drug exposure, 1×IC50 (SKOV3 values)
Excerpt: The drug doses (1×IC50) employed for both compound classes were those obtained in SKOV3 cells.

[7] = tested on: SKOV3^WT ovarian carcinoma cell line; test: Screening of SKOV3^WT for HERV expression using qPCR; type: cell-based; settings: for ΔCt HERV Henv: untreated 15.87 ± 0.56; for ΔCt HERV KISD: untreated 17.66 ± 0.23; for ΔCt HERV Kpol: untreated 18.16 ± 0.48; for ΔCt HERV Kenv: untreated 18.49 ± 0.45; for ΔCt HERV IDDMK1.2: untreated 18.68 ± 0.41; for ΔCt KERV Kseminoma: untreated 18.90 ± 0.41; for ΔCt HERV V3.1: untreated 19.32 ± 0.41; for ΔCt HERV Kgag: untreated 19.47 ± 0.58; for ΔCt HERV Fpol: untreated 19.69 ± 0.37; for ΔCt HERV KLTR: untreated 19.91 ± 0.60; for ΔCt HERV Eenv: untreated 20.10 ± 0.51; for ΔCt HERV Wprt: untreated 20.48 ± 0.72; for ΔCt HERV FRD1: untreated 21.71 ± 0.60; for ΔCt HERV Wenv: untreated 22.12 ± 0.53; for ΔCt HERV WE1: untreated 22.12 ± 0.62; for ΔCt HERV V1: untreated 22.95 ± 1.89; for ΔCt HERV V2: untreated 23.11 ± 2.07; for ΔCt HERV Penv: untreated 25.26 ± 0.48; for ΔCt HERV Pgag: untreated 25.33 ± 0.31; for ΔCt HERV HC2pol: untreated 25.99 ± 0.57; for ΔCt HERV Ppol: untreated 26.05 ± 0.31; for ΔCt HERV C: untreated 26.20 ± 0.36; for ΔCt HERV MER34.1: untreated 27.96 ± 0.43; for ΔCt HERV T: untreated 28.36 ± 0.87; for ΔCt HERV L: untreated 28.42 ± 1.52; for ΔCt HERV Fc1: untreated 29.68 ± 0.57; for ΔCt HERV Spol: untreated 32.00 ± 0.73
Protocol: In particular, the SKOV3^WT ovarian carcinoma cell line was screened for HERV expression using quantitative PCT (qPCR). […] Gene expression was considered enforced when more than 3 PCR-cycles of difference (Untreated−Treated) was calculated (n≥3).
18S ribosomal RNA serves as standard.

[8] = tested on: OvCa28 primary ovarian cancer cells; test: MTT proliferation assay, single drugs, OvCa28; type: cell-based; settings: for resistance of primary ovarian cancer cells compared to SKOV3: OvCa28 IC50 vs SKOV3 IC50; for IC50: read-out: IC50 (cell growth)
Protocol: OvCa28 primary ovarian cancer cells were isolated from a pretreated patient (patient number 28). These primary ovarian cancer cells were treated individually with either the HDAC inhibitor Romidepsin or the TLR7 agonist Vesatolimod as shown in FIG. 4. Cell growth was determined by the MTT proliferation assay.

[9] = tested on: NFkB activity; test: NFkB activity by luciferase assay (NanoLuc reporter vector with NF-κB response element); type: cell-based
Protocol: In order to make conclusions about NFkB activation, the NFkB activity was analyzed by luciferase assay. The NanoLuc® Reporter Vector with NF-κB Response Element from Promega was used for this purpose.
The pNL3.2.NF-κB-RE[NlucP/NF-κB-RE/Hygro] Vector pNL3.2. (GenBank® Accession Number JQ513377) contains five copies of an NF-κB response element (NF-κB-RE) that drives transcription of a destabilized form of NanoLuc® luciferase, an engineered small (23.3 kDa) luciferase fusion protein. The NlucP reporter consists of NanoLuc® luciferase with a C-terminal fusion to PEST, a protein destabilization domain, which responds more quickly and with greater magnitude to changes in transcriptional activity than unmodified NanoLuc® luciferase. NanoLuc® (Nluc) luciferase is a small enzyme (19.1 kDa) engineered for optimal performance as a luminescent reporter. The luminescent reaction is ATP-independent and designed to suppress background luminescence for maximal assay sensitivity.
Without stimulation we detect about 6000 RLU. […] In summary, loss of NFkB was confirmed not only by Western Blot, but also in this functional test by loss of NFkB functionality using the reporter vector with NF-κB response element.

[10] = tested on: SKOV3^WT xenograft; settings: i.p. Romidepsin 1 mg/kg, Vesatolimod 5 mg/kg, four times at 3 day intervals
Protocol: 1 mm^3 tumor pieces were implanted subcutaneosly into six to eight week old female NMRI nude mice by minimal operative intervention. […] Three days after mice were intraperitoneally treated at doses of 1 mg/kg and 5 mg/kg body weight four times at 3 day intervals for 12 consecutive days.

[11] = tested on: HERV-V1 and V2; test: ChIP (anti-H3K9ac) with qPCR of HERV-V1 and V2; type: cell-based; settings: SKOV3, OvCar3, OvCa236
Protocol: While the data concerning the transcriptional upregulation of HERV-V1/V2 upon HDAC inhibition were confirmed, it is unclear whether this is a direct effect of the drugs on epigenetic marks proximate to sites of HERV-V1/V2 integration. For this reason, ChIP-analyses of relevant histones were performed (ChIP=chromatin immunoprecipitation, was performed as described in Nakato R. et al. “Methods for ChIP-seq analysis: A practical workflow and advanced applications”, Methods 2020, doi.org/10.1016/j.ymeth.2020.03.005). Histone H3 along with H2A, H2B and H4 is involved in the structure of chromatin in eukaryotic cells. Histone H3 can undergo several different types of epigenetic modifications that influence cellular processes. These modifications include acetylation, phosphorylation, methylation, ubiquitination, and ADP-ribosylation and occur on the N-terminal tail domains of histone H3. […] In most species, histone H3 is primarily acetylated at lysine 9, 14, 18, and 27. […] We analyzed not only the ovarian cell lines SKOV3 and OVCar3, but also the primary cancer cell line OvCa236 derived from a patient. […] We therefore performed Immunoprecipitation using a anti-histone H3K9ac (Acetyl H3K9) polyclonal antibody and performed quantitative PCT (qPCR) as already described in Example 2.
HERV-V1 and V2, respectively, were analyzed separately. […]

[12] = tested on: SKOV3 cells; test: Dose-response of HERV transcription by qPCR, SKOV3; settings: FIG. 9
Excerpt: The term ΔCt reflects the difference (Δ) in cycle (C) thresholds (t). […] Measurement of specific RNA transcripts like HERV-V1/V2 by qPCR is usually performed in relation to the standard 18S, more or less transcription products are expressed in + or −ΔCt. Furthermore, differences in ΔCt between treated and untreated cells were shown as ΔΔCt.

[13] = SK-OV-3, SKOV3, single drug, read-out: IC50
[14] = OvCar3, single drug, read-out: IC50

CC(C)Cn1cnc2c(N)nc3ccccc3c21 [Imiquimod, imiquimod]
IC50 [1, 13]: 15 µM
IC50 [2, 14]: 23 µM
IC50 [3]: 500 µM
IC50 [4]: 500 µM
dissolution [5]: difficult to dissolve
rate of apoptosis [6]: about 3%

C/C=C1\NC(=O)[C@H]2CSSCC/C=C/[C@H](CC(=O)N[C@H](C(C)C)C(=O)N2)OC(=O)[C@H](C(C)C)NC1=O [Romidepsin, romidepsin]
ΔCt HERV Henv ([7]; 1x drug): 14.87 ± 0.30
ΔCt HERV KISD ([7]; 1x drug): 17.10 ± 0.35
ΔCt HERV Kpol ([7]; 1x drug): 18.19 ± 0.51
ΔCt HERV Kenv ([7]; 1x drug): 18.48 ± 0.26
ΔCt HERV IDDMK1.2 ([7]; 1x drug): 17.66 ± 0.27
ΔCt KERV Kseminoma ([7]; 1x drug): 19.70 ± 0.76
ΔCt HERV V3.1 ([7]; 1x drug): 18.63 ± 0.36
ΔCt HERV Kgag ([7]; 1x drug): 18.57 ± 0.43
ΔCt HERV Fpol ([7]; 1x drug): 19.67 ± 0.22
ΔCt HERV KLTR ([7]; 1x drug): 21.02 ± 1.95
ΔCt HERV Eenv ([7]; 1x drug): 19.99 ± 0.51
ΔCt HERV Wprt ([7]; 1x drug): 20.97 ± 1.15
ΔCt HERV FRD1 ([7]; 1x drug): 22.07 ± 0.64
ΔCt HERV Wenv ([7]; 1x drug): 22.33 ± 0.33
ΔCt HERV WE1 ([7]; 1x drug): 21.92 ± 1.02
ΔCt HERV V1 ([7]; 1x drug): 15.30 ± 0.36
ΔCt HERV V2 ([7]; 1x drug): 15.24 ± 0.25
ΔCt HERV Penv ([7]; 1x drug): 25.46 ± 0.60
ΔCt HERV Pgag ([7]; 1x drug): 26.02 ± 0.50
ΔCt HERV HC2pol ([7]; 1x drug): 24.85 ± 0.35
ΔCt HERV Ppol ([7]; 1x drug): 26.55 ± 0.39
ΔCt HERV C ([7]; 1x drug): 26.79 ± 0.97
ΔCt HERV MER34.1 ([7]; 1x drug): 25.78 ± 0.13
ΔCt HERV T ([7]; 1x drug): 29.31 ± 0.84
ΔCt HERV L ([7]; 1x drug): 27.62 ± 0.95
ΔCt HERV Fc1 ([7]; 1x drug): 28.17 ± 3.80
ΔCt HERV Spol ([7]; 1x drug): 31.04 ± 1.11
ΔCt HERV P4.6 ([7]; 1x drug, untreated […]): 31.65 ± 1.16
IC50 ([1]; SK-OV-3): 0.004 µM
IC50 ([1]; SK-OV-3, read-out: IC50 (cell growth)): 0.004 µg/mL
resistance of primary ovarian cancer cells compared to SKOV3 [8]: ~188 fold
IC50 [8]: 0.75 µg/mL (≈ 1.39 µM)
IC50 [2]: 0.007 µM
IC50 [3]: 0.006 µM
IC50 [4]: 0.003 µM
rate of apoptosis [6]: about 3%

CCCCOc1nc(N)c2c(n1)N(Cc1cccc(CN3CCCC3)c1)CC(=O)N2 [Vesatolimod, vesatolimod]
IC50 ([1]; SK-OV-3, SKOV3, single drug, MTT, read-out: IC50 (cell growth)): 12.5 µg/mL
IC50 [1, 13]: 39 µM
IC50 ([8]; OvCa28, single drug, MTT): 30 µg/mL (≈ 73.1 µM)
resistance of primary ovarian cancer cells compared to SKOV3 [8]: ~2 fold
IC50 [2, 14]: 32 µM
IC50 [3]: 40 µM
IC50 [4]: 32 µM
NFkB activity (reporter) ([9]; in both cell lines, OvCar 3 and SKOV3, without stimulation about 6000 RLU): slightly reduced activity
total tumor volume [10]: did reduce the total tumor volume
dissolution [5]: better dissolution profile in common vehicles
rate of apoptosis [6]: about 8%

O=C(CCCCCCC(=O)Nc1ccccc1)NO [Vorinostat, vorinostat]
ΔCt HERV Henv ([7]; 1x drug): 15.51 ± 0.31
ΔCt HERV KISD ([7]; 1x drug): 17.71 ± 0.19
ΔCt HERV Kpol ([7]; 1x drug): 18.81 ± 0.30
ΔCt HERV Kenv ([7]; 1x drug): 19.26 ± 1.00
ΔCt HERV IDDMK1.2 ([7]; 1x drug): 18.29 ± 0.29
ΔCt KERV Kseminoma ([7]; 1x drug): 20.25 ± 0.18
ΔCt HERV V3.1 ([7]; 1x drug): 19.22 ± 0.33
ΔCt HERV Kgag ([7]; 1x drug): 19.17 ± 0.41
ΔCt HERV Fpol ([7]; 1x drug): 20.37 ± 0.49
ΔCt HERV KLTR ([7]; 1x drug): 19.31 ± 0.42
ΔCt HERV Eenv ([7]; 1x drug): 20.08 ± 0.25
ΔCt HERV Wprt ([7]; 1x drug): 20.80 ± 0.34
ΔCt HERV FRD1 ([7]; 1x drug): 22.51 ± 0.45
ΔCt HERV Wenv ([7]; 1x drug): 22.03 ± 0.34
ΔCt HERV WE1 ([7]; 1x drug): 22.18 ± 0.32
ΔCt HERV V1 ([7]; 1x drug): 15.48 ± 0.78
ΔCt HERV V2 ([7]; 1x drug): 15.46 ± 0.79
ΔCt HERV Penv ([7]; 1x drug): 25.39 ± 0.49
ΔCt HERV Pgag ([7]; 1x drug): 25.45 ± 0.11
ΔCt HERV HC2pol ([7]; 1x drug): 25.52 ± 0.39
ΔCt HERV Ppol ([7]; 1x drug): 26.34 ± 0.33
ΔCt HERV C ([7]; 1x drug): 27.84 ± 0.59
ΔCt HERV MER34.1 ([7]; 1x drug): 26.62 ± 0.62
ΔCt HERV T ([7]; 1x drug): 28.24 ± 0.72
ΔCt HERV L ([7]; 1x drug): 28.08 ± 0.90
ΔCt HERV Fc1 ([7]; 1x drug): 30.36 ± 0.84
ΔCt HERV Spol ([7]; 1x drug): 30.80 ± 0.75
HERV-V2 expression levels ([7]; SKOV3, qPCR, FIG. 1B): increased
expression of HERV-V1 and V2 transcripts after H3K9ac immunoprecipitation [11]: enhanced
expression of HERV-V1 and V2 [12]: increased
rate of apoptosis [6]: about 6%

TNFα
response of NF-κB reporter vector ([9]; positive control, inflammatory stimulation): 20.000 RLU
